SMILES strings stand for the structures.

One data set has as its system Caco2 cells. Nature of the data set: Lipid transport (14C-fatty acid release) through Caco2 monolayer in transwell system. The format is cell-based, human. As to conditions: 20 μM, 24 h, vs DMSO; FIG. 8. As to the method: Lipid transport studies were assessed in Caco2 cells seeded in trans-wells. 1.5×10^5 cells were seeded into a 12-well cell culture insert of 1 μm pore size Trans-well and maintained in for 14 consecutive days with media change every two days. For the lipids uptake and release, the apical side of the membrane was loaded with radioactive ^14C-palmitic acid (0.2 μCi), oleic acid (1 mM), and taurocholic acid (2 mM) in DMEM high glucose 10% FBS. The basal medium contained DMEM high glucose 0.1% FBS. After 24 hours of incubation, cell lysates and the apical and basolateral medium was collected and the ^14C-palmitic acid was measured in a scintillation counter for aliquots of apical and basal medium and for cell lysate. The same protocol was used in Caco2 cells that were treated with CRT0066101 (3 and 5 μM) for 24 h (added together with the mentioned radioactive fatty acid cocktail).
In order to test the potential of PKD inhibitors to restrict lipid transport via epithelial monolayer, we employed Caco2 cells seeded into the Transwells system. Briefly, we plated 1.5×10^5 cells seeded into a 12-well cell culture inserts of 1-μm pore size Transwell and maintained in for 14 consecutive days with media change every 2 days. For the lipid uptake and release, the apical side of the membrane was loaded with radioactive 14C-palmitic acid (0.2 μCi), oleic acid (1 mM), and taurocholic acid (2 mM) in DMEM high glucose 10% FBS. The basal medium contained DMEM high glucose 0.1% FBS. After 24 h of incubation, cell lysates and the apical and basolateral medium were collected and the 14C-palmitic acid was measured in a scintillation counter for aliquots of apical and basal medium and for cell lysate. To assess the efficiency of different PKD inhibitors, Caco2 cells were treated with either CRT0066101 (5 μM), CID2011756 (20 μM), CID755673 (20 μM), 1-NM-PP1 (20 μM), or control solvent solution (DMSO) for 24 h (added together with the mentioned radioactive FA cocktail).
In general terms: Caco-2 cells form a polarised layer with tight junctions and transporters.

In a further data set the test system is LDLR-deficient mice. The following applies: cited from earlier work.
In a further data set the test system is male C57BL/6 mice on HFD. Nature of the data set: Oral PKD inhibitor in HFD-fed C57BL/6 mice (diet-induced obesity and diabetes). The following applies: oral administration, mice; also said to prevent hyperlipidemia and diabetes and improve microflora. It is filed as in vivo, mouse. The procedure: Mice body weight development was closely monitored and reported here on a weekly basis when mice were on a specified diet. All experiments were performed in male mice.
PKD inhibitor CRT0066101 was dissolved in water (10 mg/kg) and administered orally to the mice by daily gavage, while the control mice were gavaged with water. Mice were maintained on the specified diets and had ab libitum access to food and water. C57BL/6 mice were administered CRT inhibitor treatment at 4-weeks of age, while for the rescue experiment, inhibitor was given under the same circumstances but treatment started only after 7 weeks of HFD feeding. Intestinal barrier permeability was further assessed 1 hour after oral gavage of FITC-Dextran 4.
Energy expenditure, food intake, and activity measurements were obtained in a PhenoMaster (TSE Systems) as previously described (El-Merahbi, Viera et al., 2020, Trujillo Viera, El-Merahbi et al., 2016). Briefly, mice were kept in separate metabolic cages with unlimited access to water and to the specified diet. After 48 hours of acclimation, data was collected every 10 min including photobeam breaks, oxygen consumption, carbon dioxide dissipation, and food and water consumption. Results in bars represent the average of each night/day cycle.
A glucose tolerance test (GTT) was performed after overnight fasting. Mice blood glucose was assessed before and 15, 30, 60, 90, and 120 minutes after intraperitoneal injection of glucose (2 g/kg). For the Insulin tolerance test (ITT), the same measurements were performed after 4 hours of fasting and intraperitoneal injection of 0.5 U/kg of recombinant insulin. For glucose measurements, one blood drop was drawn from the tail tip into a test strip and measured with a glucometer (Accu-Chek® Roche).
Lipids tolerance test was performed as described previously (Wang, Rong et al., 2016b). Briefly, overnight fasted mice were gavaged with olive oil (10 μL/g body weight). Blood was collected at indicated times for measurement of serum triglycerides content. For lipids absorption under tyloxapol treatment, 250 μg/g of body weight were i.p. injected to mice 30 minutes before the gavage of olive oil 5 μL/g body weight.
Liver triglycerides were measured by homogenization of 50 mg of liver in 500 uL of lysis buffer and lipids extraction in methanol:chloroform, phase extraction and evaporation. The lipids were redissolved in DMSO and triglycerides quantified with the mentioned kit and according to the manufacturers' instructions.
The bedding of single-caged mice was collected and the ingested food ingestion from the individual mice was assessed. All the stools were manually collected. After overnight dissecation at 60° C., the samples were weighted and frozen for further analysis. The amount of feces produced per mouse was compared to the amount of food consumed and the weight gain. About 3 g of dried feces material were homogenized and 1 g was pressed into a tablet and accurately weighted. Calorie content from feces and diet was measured in duplicates in a 6400 Automatic Isoperibol calorimeter (Parr Instrument Company). To analyze energy excreted, the amount of energy in feces was compared to the amount of energy ingested (the product between grams of food and caloric content of the food). Lipids extraction from feces was performed as previously described (Kraus, Yang et al., 2015).
Proteins from tissues and cell culture were extracted with RIPA buffer supplemented with phosphatase and protease inhibitor (PPI, Thermo Fisher Scientific). Protein concentration was measured by Pierce™ BCA Protein Assay Kit (Thermo Fisher Scientific) following the manufacturer's protocol. Reduced protein extracts were separated on 10% SDS-PAGE gels by electrophoresis and transferred to PVDF membranes under wet transfer. Membranes were blocked in 5% (w/v) milk in TBS-T before overnight probing with indicated primary antibodies at 4° C., followed by TBS-T washes and incubation with corresponding secondary antibody.

`CC(C)(C)n1nc(Cc2cccc3ccccc23)c2c(N)ncnc21` [1-NM-PP1, 1-(tert-butyl)-3-(nafthalen-1-ylmethyl)-1H-pirazol[3,4-d]pyrimidine-4-amine]: the “lipid transport through the Caco2 monolayer” value in the data set on Caco2 cells was “significant reduction in lipid transport”.

Take `CC(C)c1c(C(=O)Nc2ccccc2)c(-c2ccccc2)c(-c2ccc(F)cc2)n1CC[C@@H](O)C[C@@H](O)CC(=O)O` [Atorvastatin]: the course of atherosclerosis result with LDLR-deficient mice is on record as “efficiently attenuating the course of atherosclerosis”.

As to `O=C1NCCCc2c1oc1ccc(O)cc21` [CID755673], the “obesity induced by a high-fat diet (summary statement)” value with male C57BL/6 mice on HFD is “significantly reduces obesity induced by a high-fat diet”. The “lipid transport through the Caco2 monolayer” value with Caco2 cells is “significant reduction in lipid transport”.

In the case of `O=C(Nc1ccc(CN2CCOCC2)cc1)c1ccc(-c2cccc(Cl)c2)o1` [CID2011756], the “lipid transport through the Caco2 monolayer” value in the data set with Caco2 cells is given as “significant reduction in lipid transport”.

The values are drawn from patent US20240082260A1, “INHIBITOR OF PROTEIN KINASE D FOR USE IN PREVENTION OR TREATMENT OF HYPERLIPIDEMIA” (priority 2021, published 2024).
